Assays:
[1] = tested on: Human glioma cells GL07; experiment: Antitumor effect on human glioma cells (GL07) transplanted into nude mice; format: in vivo; details: GL07, oral, 20 mg/kg once a day for 9 days; for inhibition in vivo at 20 mg/kg: Mus musculus, Glioma cell, 216 h, read-out: TGIR, % (tumor growth inhibition rate)
Experimental: Antitumor Effect on Human Glioma Cells (GL07)
Human glioma cells GL07 (obtained from Central Laboratories for Experimental Animals) were transplanted into nude mice. When the tumor volume became about 100 mm^3, the mice were grouped. In this case, grouping was carried out so that each group consisted of four mice and the average tumor volume was even among the groups. The test compound was orally or intraperitoneally administered at a dose of 20 mg/kg to the test groups every day once a day for 9 days, while the medium was administered to the control group in the manner as in the test groups. The tumor growth inhibition rate (TGIR) was calculated as follows: The tumor growth inhibition rate (TGIR)=(1−Tx/Cx)×100 wherein Cx represents the volume of tumor at day x for the control group when the tumor volume at the day of the start of the administration was presumed to be 1; and Tx represents the volume of tumor for test compound administration groups.

[2] = target: T1, human KDR (Homo sapiens, UniProt P35968); experiment: Inhibitory activity against KDR phosphorylation by ELISA; format: cell-based; details: NIH 3T3 cells transfected with human KDR, VEGF 100 ng/ml
T1 construct: expressed in transfected cells; host or cells: NIH 3T3 cells (Sawano A et al., Cell Growth & Differentiation 7, 213-221 (1996))
T1 sequence (P35968 20-1356): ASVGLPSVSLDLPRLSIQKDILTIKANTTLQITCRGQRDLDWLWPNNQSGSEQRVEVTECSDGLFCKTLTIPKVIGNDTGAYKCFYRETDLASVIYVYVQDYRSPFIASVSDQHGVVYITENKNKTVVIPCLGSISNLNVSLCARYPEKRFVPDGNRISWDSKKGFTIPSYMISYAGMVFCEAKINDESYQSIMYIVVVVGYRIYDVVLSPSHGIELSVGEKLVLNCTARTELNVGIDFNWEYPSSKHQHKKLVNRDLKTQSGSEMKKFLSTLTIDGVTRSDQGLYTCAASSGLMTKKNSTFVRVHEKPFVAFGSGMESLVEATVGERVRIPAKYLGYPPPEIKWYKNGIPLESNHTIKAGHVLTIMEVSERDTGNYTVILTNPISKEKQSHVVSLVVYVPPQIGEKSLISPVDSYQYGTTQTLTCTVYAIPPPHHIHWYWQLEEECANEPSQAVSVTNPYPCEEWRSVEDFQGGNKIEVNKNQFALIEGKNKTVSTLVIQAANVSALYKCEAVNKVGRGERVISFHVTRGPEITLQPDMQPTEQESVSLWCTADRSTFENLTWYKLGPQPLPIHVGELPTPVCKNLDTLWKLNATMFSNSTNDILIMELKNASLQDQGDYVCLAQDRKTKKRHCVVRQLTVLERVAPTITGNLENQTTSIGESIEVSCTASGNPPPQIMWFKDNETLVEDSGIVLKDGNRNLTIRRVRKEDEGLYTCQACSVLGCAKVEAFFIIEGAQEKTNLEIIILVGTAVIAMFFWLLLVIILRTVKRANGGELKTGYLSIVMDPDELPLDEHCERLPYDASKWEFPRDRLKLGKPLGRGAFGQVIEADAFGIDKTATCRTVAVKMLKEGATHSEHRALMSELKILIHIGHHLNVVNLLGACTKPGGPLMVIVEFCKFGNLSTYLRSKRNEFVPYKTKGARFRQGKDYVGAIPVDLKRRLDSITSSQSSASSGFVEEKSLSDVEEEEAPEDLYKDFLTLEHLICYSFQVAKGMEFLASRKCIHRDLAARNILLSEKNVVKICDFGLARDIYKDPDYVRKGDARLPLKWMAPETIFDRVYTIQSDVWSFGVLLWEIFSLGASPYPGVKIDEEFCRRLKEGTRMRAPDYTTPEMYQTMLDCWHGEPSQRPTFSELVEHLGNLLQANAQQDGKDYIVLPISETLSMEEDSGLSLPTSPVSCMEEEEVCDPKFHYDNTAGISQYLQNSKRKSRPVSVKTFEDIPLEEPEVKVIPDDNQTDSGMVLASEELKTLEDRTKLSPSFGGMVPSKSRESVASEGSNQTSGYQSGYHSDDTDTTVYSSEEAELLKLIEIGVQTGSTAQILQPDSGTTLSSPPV
Experimental: Measurement of Inhibitory Activity Against KDR Phosphorylation by ELISA
NIH 3T3 cells (Sawano A et al., Cell Growth & Differentation, 7, 213–221 (1996), “Flt-1 but not KDR/Flk-1 tyrosine kinase is a receptor for placenta growth factor, which is related to vascular endothelial growth factor”) prepared by transfection of human KDR were cultured in a DMEM medium containing 10% fetal calf serum (purchased from GIBCO BRL) within a 5% carbon dioxide incubator until 50 to 70% confluent. The harvested cells were inoculated into wells, containing the same medium, in a collagen-type one-coat 96-well flat-bottom plate in an amount of 1.5×10^4 per well, followed by cultivation at 37° C. overnight. The medium was then replaced by a DMEM medium containing 0.1% fetal calf serum. A solution of the test compound in dimethyl sulfoxide was added to each well, and the cultivation was continued at 37° C. for additional one hr. A human recombinant vascular endothelial growth factor (hereinafter abbreviated to “VEGF”) was added to a final concentration of 100 ng/ml, and the stimulation of cells was carried out at 37° C. for 2 min. The medium was removed, the cells were washed with phosphate buffered saline (pH 7.4), and 50 μl of a solubilization buffer (20 mM HEPES (pH 7.4), 150 mM NaCl, 0.2% Triton X-100, 10% glycerol, 5 mM sodium orthovanadylate, 5 mM disodium ethylenediaminetetraacetate, and 2 mM Na4P2O7) was then added thereto. The mixture was shaken at 4° C. for 2 hr to prepare a cell extract.
Separately, phosphate buffered saline (50 μl, pH 7.4) containing […] of anti-phospho-tyrosine antibody (PY20; purchased from Transduction Laboratories) was added to a microplate for ELISA (Maxisorp; purchased from NUNC), followed by standing at 4° C. overnight to form a solid phase on the wells. After washing of the plate, 300 μl of a blocking solution was added, followed by standing at room temperature for 2 hr to perform blocking. After washing, the whole quantity of the cell extract was transferred to the wells, and the plate was then allowed to stand at 4° C. overnight. After washing, an anti-KDR antibody (purchased from Santa Cruz) was allowed to react at room temperature for one hr, and, after washing, a peroxidase-labeled anti-rabbit Ig antibody (purchased from Amersham) was allowed to react at room temperature for one hr. After washing, a chromophoric substrate for peroxidase (purchased from Sumitomo Bakelite Co., Ltd.) was added thereto to initiate a reaction. After a suitable level of color development, a reaction termination solution was added to stop the reaction, and the absorbance at 450 nm was measured with a microplate reader. The KDR phosphorylation activity for each well was determined by presuming the absorbance with the addition of VEGF and without the addition of the medicament to be 100% KDR phosphorylation activity and the absorbance without the medicament and VEGF to be 0% KDR phosphorylation activity. The concentration of the test compound was varied on several levels, the inhibition (%) of KDR phosphorylation was determined for each case, and the concentration of the test compound necessary for inhibiting 50% of KDR phosphorylation (IC50) was calculated.

COc1cc2c(Oc3ccc(NC(=O)Nc4ccc(F)cc4F)c(Cl)c3)ccnc2cc1OCCN1CCOCC1 [Example 51, N-(2-chloro-4-{[6-methoxy-7-(2-morpholinoethoxy)-4-quinolyl]oxy}phenyl)-N′-(2,4-difluorophenyl)urea]
inhibition in vivo at 20 mg/kg [1]: 65%

C#CCNC(=O)Nc1ccc(Oc2ncnc3cc(OC)c(OC)cc23)cc1Cl [Example 81, N-{2-Chloro-4-[(6,7-dimethoxy-4-quinazolinyl)oxy]phenyl}-N′-(2-propynyl)urea]
IC50 [2]: 4.1 nM

CCCNC(=O)Nc1ccc(Oc2ncnc3cc(OC)c(OC)cc23)cc1F [Example 88, N-{4-[(6,7-Dimethoxy-4-quinazolinyl)oxy]-2-fluorophenyl}-N′-propylurea]
IC50 [2]: 61 nM

COc1ccccc1NC(=O)Nc1ccc(Oc2ncnc3cc(OC)c(OC)cc23)c(C)c1 [Example 101, N-{4-[(6,7-Dimethoxy-4-quinazolinyl)oxy]-3-methylphenyl}-N′-(2-methoxyphenyl)urea]
IC50 [2]: 3 nM
inhibition in vivo at 20 mg/kg [1]: 44%

CCCCNC(=O)Nc1ccc(Oc2ncnc3cc(OC)c(OC)cc23)cc1[N+](=O)[O-] [Example 108, N-Butyl-N′-{4-[(6,7-dimethoxy-4-quinazolinyl)oxy]-2-nitrophenyl}urea]
IC50 [2]: 5 nM

CCCNC(=O)N(COC)c1ccc(Oc2ncnc3cc(OC)c(OC)cc23)cc1Cl [Example 109, N-{2-Chloro-4-[(6,7-dimethoxy-4-quinazolinyl)oxy]phenyl}-N-methoxymethyl-N′-propylurea]
inhibition in vivo at 20 mg/kg [1]: 71%

CCCNC(=O)N(C(C)=O)c1ccc(Oc2ncnc3cc(OC)c(OC)cc23)cc1Cl [Example 110, N-Acetyl-N-{2-chloro-4-[(6,7-dimethoxy-4-quinazolinyl)oxy]phenyl}-N′-propylurea]
IC50 [2]: > 1000 nM
inhibition in vivo at 20 mg/kg [1]: 26%

CCCN(C)C(=O)Nc1ccc(Oc2ncnc3cc(OC)c(OC)cc23)cc1Cl [Example 111, N′-{2-Chloro-4-[(6,7-dimethoxy-4-quinazolinyl)oxy]phenyl}-N-methyl-N-propyurea]
IC50 [2]: > 1000 nM
inhibition in vivo at 20 mg/kg [1]: 78%

CCCN(CC)C(=O)Nc1ccc(Oc2ncnc3cc(OC)c(OC)cc23)cc1Cl [Example 112, N′-{2-Chloro-4-[(6,7-dimethoxy-4-quinazolinyl)oxy]phenyl}-N-ethyl-N-propylurea]
IC50 [2]: > 1000 nM
inhibition in vivo at 20 mg/kg [1]: 81%

CCCN(CCC)C(=O)Nc1ccc(Oc2ncnc3cc(OC)c(OC)cc23)cc1Cl [Example 113, N′-{2-Chloro-4-[(6,7-dimethoxy-4-quinazolinyl)oxy]phenyl}-N,N-dipropylurea]
IC50 [2]: > 1000 nM
inhibition in vivo at 20 mg/kg [1]: 61%

CCCCN(C)C(=O)Nc1ccc(Oc2ncnc3cc(OC)c(OC)cc23)cc1Cl [Example 114, N-Butyl-N′-{2-chloro-4-[(6,7-dimethoxy-4-quinazolinyl)oxy]phenyl}-N-methylurea]
IC50 [2]: > 1000 nM
inhibition in vivo at 20 mg/kg [1]: 60%

COc1cc2ncnc(Oc3ccc(NC(=O)N(C)c4ccc(Cl)cc4)c(Cl)c3)c2cc1OC [Example 115, N′-{2-Chloro-4-[(6,7-dimethoxy-4-quinazolinyl)oxy]phenyl}-N-(4-chlorophenyl)-N-methylurea]
IC50 [2]: > 1000 nM
inhibition in vivo at 20 mg/kg [1]: 74%

CCN(CC)C(=O)Nc1ccc(Oc2ncnc3cc(OC)c(OC)cc23)cc1Cl [Example 116, N′-{2-Chloro-4-[(6,7-dimethoxy-4-quinazolinyl)oxy]phenyl}-N,N-diethylurea]
IC50 [2]: > 1000 nM
inhibition in vivo at 20 mg/kg [1]: 83%

CNC(=O)Nc1ccc(Oc2ncnc3cc(OC)c(OC)cc23)cc1Cl [Example 117, N-{2-chloro-4-[(6,7-dimethoxy-4-quinazolinyl)oxy]phenyl}-N′-methylurea]
IC50 [2]: 24 nM

COc1cc2ncnc(Oc3ccc(NC(=O)N(C)C)c(Cl)c3)c2cc1OC [Example 118, N′-{2-Chloro-4-[(6,7-dimethoxy-4-quinazolinyl)oxy]phenyl}-N,N-dimethylurea]
IC50 [2]: > 1000 nM

CCCNC(=O)Nc1ccc(Oc2ncnc3cc(OCCCN4CCOCC4)c(OC)cc23)cc1Cl [Example 119, N-(2-chloro-4-{[6-methoxy-7-(3-morpholinopropoxy)-4-quinazolinyl]oxy}phenyl)-N′-propylurea]
IC50 [2]: 3.6 nM
inhibition in vivo at 20 mg/kg [1]: 40%

CCCNC(=O)Nc1ccc(Oc2ncnc3cc(OCCN4CCOCC4)c(OC)cc23)cc1Cl [Example 120, N-(2-Chloro-4-{[6-methoxy-7-(2-morpholinoethoxy)-4-quinazolinyl]oxy}phenyl)-N′-propylurea]
IC50 [2]: 3.9 nM
inhibition in vivo at 20 mg/kg [1]: 30%

CCCNC(=O)Nc1ccc(Oc2ncnc3cc(OCCCO)c(OC)cc23)cc1Cl [Example 121, N-(2-Chloro-4-{(7-(3-hydroxypropoxy)-6-methoxy-4-quinazolinyl]oxy}phenyl)-N′-propylurea]
IC50 [2]: 12.5 nM
inhibition in vivo at 20 mg/kg [1]: 22%

CCCNC(=O)Nc1ccc(Oc2ncnc3cc(OCCO)c(OC)cc23)cc1Cl [Example 122, N-(2-Chloro-4-{[7-(2-hydroxyethoxy)-6-methoxy-4-quinazolinyl]oxy}phenyl)-N′-propylurea]
IC50 [2]: 5.8 nM
inhibition in vivo at 20 mg/kg [1]: 21%

CCCNC(=O)Nc1ccc(Oc2ncnc3cc(OCCN4CCN(C)CC4)c(OC)cc23)cc1Cl [Example 128, N-[2-Chloro-4-({6-methoxy-7-[2-(4-methylpiperazino)ethoxy]-4-quinazolinyl}oxy)phenyl]-N′-propylurea]
inhibition in vivo at 20 mg/kg [1]: 21%

CCCNC(=O)Nc1ccc(Oc2ncnc3cc(OCCN(C)CCO)c(OC)cc23)cc1Cl [Example 129, N-{2-Chloro-4-[(7-{2-[(2-hydroxyethyl)-(methyl)amino]ethoxy}-6-methoxy-4-quinazolinyl)oxy]-phenyl}-N′-propylurea]
inhibition in vivo at 20 mg/kg [1]: 25%

CCCNC(=O)Nc1ccc(Oc2ncnc3cc(OCCCN4CCN(C)CC4)c(OC)cc23)cc1Cl [Example 130, N-[2-Chloro-4-({6-methoxy-7-[3-(4-methylpiperazino)propoxy]-4-quinazolinyl}oxy)phenyl]-N′-propylurea]
inhibition in vivo at 20 mg/kg [1]: 32%

CCCNC(=O)Nc1ccc(Oc2ncnc3cc(OCCCN4CCOCC4)c(OC)cc23)cc1OC [Example 171, N-(2-Methoxy-4-{[6-methoxy-7-(3-morpholinopropoxy)-4-quinazolinyl]oxy}phenyl)-N′-propylurea]
inhibition in vivo at 20 mg/kg [1]: 13%

COc1cc(Oc2ncnc3cc(OCCCN4CCOCC4)c(OC)cc23)ccc1NC(=O)Nc1ccc(F)cc1F [Example 172, N-(2,4-Difluorophenyl)-N′-(2-methoxy-4-{[6-methoxy-7-(3-morpholinopropoxy)-4-quinazolinyl]oxy}-phenyl)urea]
inhibition in vivo at 20 mg/kg [1]: 42%

CCCNC(=O)Nc1ccc(Oc2ccnc3cc(OCCCN4CCOCC4)c(OC)cc23)cc1OC [Example 173, N-(2-Methoxy-4-{[6-methoxy-7-(3-morpholinopropoxy)-4-quinolyl]oxy}phenyl)-N′-propylurea]
inhibition in vivo at 20 mg/kg [1]: 21%

CCCNC(=O)Nc1ccc(Oc2ccnc3cc(OCc4ccncc4)c(OC)cc23)cc1OC [Example 174, N-(2-Methoxy-4-{[6-methoxy-7-(4-pyridylmethoxy)-4-guinolyl]oxy}phenyl)-N′-propylurea]
TGIR, % (tumor growth inhibition rate) [1]: 19%

Reference: patent US7169789B2 (Kirin Beer Kabushiki Kaisha, priority 1999, dated 2007)
